Test results: US20240277798A1, “CYCLOSPORINE COMPOSITIONS AND METHODS OF USE” (Bacainn Biotherapeutics, Ltd., priority 2021, published 2024)
“And” between values parts separate entries of the source, which are not always exact repeats. Equal values may be shown once.

Experiments:
[1] = test system: human neutrophils; assay: PMN transmigration assay (Salmonella typhimurium-infected T84 monolayer, HXA3/MRP2-driven neutrophil migration, MPO readout); type: cell-based
Procedure: PMN transmigration assay. T84 colorectal cancer cells were grown to confluence on the bottom side of 12 well polycarbonate membrane inserts of a 24 well Transwell® plate. The confluent growth of these epithelial cells results in physiologically-relevant apical (luminal) and basolateral surfaces in the transwells. […] The monolayer was then infected on the apical surface with Salmonella typhimurium for 2 hours to induce hepoxilin A3 (HXA3) efflux through the MRP2 membrane protein and into the apical chamber. […] Freshly isolated and prepared human neutrophils were then added to the basolateral side and allowed to transmigrate through the monolayer for 2 hours. The number of neutrophils migrated to the apical chamber (due to the HXA3 gradient) was then assayed by determination of myeloperoxidase activity (a neutrophil biomarker). Inhibition of transmigration is indicated by lower MPO activity in the apical chamber.

[2] = SGF FeSSIF stability; type: in vitro ADME; settings: 10 μM, 37° C., 6 hours, predicted
Procedure: SGF FeSSIF Stability Procedure. BT090 (10 μM) was incubated in duplicate at 37° C. for a total of 6 hours in simulated gastric fluid (SGF) (Ricca, Arlington, TX) and Fed State Simulated Intestinal Fluid (FeSSIF) (Biorelevant, London, UK). The reactions were initiated by spiking the test articles (1 mM water stock solutions) in their respective buffers. At selected time points (0, 0.5, 1, 2, 4, and 6 hours), a 50 μL aliquot was taken from the incubation mixtures and frozen at −80° C. At the end of the incubation period, 200 μL of 50:50 acetonitrile:water containing the internal standards (IS) were added to every tube and vortexed thoroughly. The 0 hour samples were prepared in pre-quenched SGF or FeSSIF. All quenched samples were then submitted to bioanalysis for LC-MS/MS quantification.
Bioanalysis. BT090 samples were analyzed by LC-MS/MS using a Thermo Accela UPLC and a Thermo Q-Exactive mass spectrometer. The [M+H]+ adducts of the compounds and internal standards were monitored using positive mode electrospray ionization in exact mass mode. […]
SGF FeSSIF Stability Procedure. […] All quenched samples are then submitted to bioanalysis for LC-MS/MS quantification.
Bioanalysis. […] The [M+H]+ adducts of the compounds and internal standards are monitored using positive mode electrospray ionization in exact mass mode. […]

[3] = Amount excreted in feces after oral dosing in rats; type: in vivo, Sprague-Dawley rats; settings: rat, individual animals
[4] = BT070 10 mg/kg orally, 0-24 h, 10 mg/kg

stability in simulated gastric fluid (SGF) [2]: stable
stability in simulated intestinal fluid (FeSSIF) [2]: stable
Amount in feces ([3]; BT070 10 mg/kg orally, 0-4 h): 561.4 ng
% of dose excreted unchanged in feces [3, 4]: 44.6% and 9.0% and 72.2%
Amount in feces ([3]; BT070 10 mg/kg orally, 4-8 h, 10 mg/kg): 181805.0 ng and 875239.4 ng
Compound: CC[C@@H]1NC(=O)[C@H]([C@H](O)[C@H](C)CCCCCC(=O)O)N(C)C(=O)[C@H](C(C)C)N(C)C(=O)[C@H](CC(C)C)N(C)C(=O)[C@H](CC(C)C)N(C)C(=O)[C@@H](C)NC(=O)[C@H](C)NC(=O)[C@H](CC(C)C)N(C)C(=O)[C@H](C(C)C)NC(=O)[C@H](CC(C)C)N(C)C(=O)CN(C)C1=O [BT070]
dose-response of inhibition of neutrophil migration ([1]; FIG. 1, result in words): dose-responsive inhibition
inhibition of neutrophil migration ([1]; dose of 100 nM, result in words): exhibit inhibition
Total amount excreted unchanged in feces [3, 4]: 1212482.2 ng and 252675.5 ng and 1891835.1 ng
Amount in feces ([3]; BT070 10 mg/kg orally, 8-24 h, 10 mg/kg): 1030677.2 ng and 252114.1 ng and 1016595.6 ng
Total amount excreted in feces ([3]; BT070 as breakdown product after BT051 10 mg/kg orally, 0-48 h): 36.9 µg and 33.4 µg and 41.4 µg and 38.5 µg
Amount in feces ([3]; BT070 as breakdown product after BT051 10 mg/kg orally, 8-24 h): 31200 ng and 14300 ng and 10600 ng and 34800 ng
Amount in feces ([3]; BT070 as breakdown product after BT051 10 mg/kg orally, 24-48 h): 5700 ng and 19100 ng and 30800 ng and 3700 ng
